Converted amounts (≈) assume the structure as drawn. “And” between values parts separate entries of the source, which are not always exact repeats. Equal entries are not always repeated. Blank lines part the entries; values can stand above or below the compound they belong to.
Tests used:
Assay in all cases: ≥ marks a high value that may be exact or a test limit, other limits are often not marked, values filed in µg/mL are converted to µM
[1] = system: Candida albicans ATCC 10231
[2] = system: Candida parapsilosis CBS 604
[3] = system: Candida krusei CBS 573
[4] = system: Saccharomyces cerevisiae SZMC 0644
[5] = system: Staphylococcus aureus ATCC 25923
[6] = system: Escherichia coli ATCC 25922
[7] = system: Aggregatibacter actinomycetemcomitans ATCC 29522
[8] = system: Streptococcus sanguinis ATCC 10556
[9] = system: Streptococcus pyogenes
[10] = system: Vibrio alginolyticus
[11] = system: Staphylococcus aureus
[12] = system: Escherichia coli
[13] = system: Vibrio parahaemolyticus
[14] = system: Vibrio fluvialis
[15] = system: Aeromonas hydrophila
[16] = system: Fusarium solani MTCC 10158
[17] = system: Micrococcus luteus A270
[18] = system: Candida albicans MDM8
[19] = system: Escherichia coli SBS 363

- MIC [1]: 20.3 µM (≈ 49.9 µg/mL)
- MIC [2]: 20.3 µM (≈ 49.9 µg/mL)
- MIC [3]: 20.3 µM (≈ 49.9 µg/mL)
- MIC [4]: 20.3 µM (≈ 49.9 µg/mL)
SMILES: CC[C@H](C)[C@H](N)C(=O)N[C@@H](C)C(=O)NCC(=O)N[C@@H](C)C(=O)N[C@@H](Cc1cnc[nH]1)C(=O)N[C@@H](CCCCN)C(=O)N[C@H]1CSSC[C@@H](C(=O)N[C@@H](CC(N)=O)C(=O)N[C@@H](CO)C(=O)N2CCC[C@H]2C(=O)N[C@@H](CC(N)=O)C(=O)O)NC(=O)[C@@H]2CSSC[C@H](NC(=O)[C@@H]3CCCN3C(=O)[C@H](CCCCN)NC1=O)C(=O)N[C@@H](Cc1ccc(O)cc1)C(=O)NCC(=O)N[C@@H](Cc1ccc(O)cc1)C(=O)N[C@@H](CCCCN)C(=O)N[C@@H]([C@@H](C)O)C(=O)N[C@@H](CC(N)=O)C(=O)N[C@@H](CO)C(=O)N2 [IAGAHKCKPCYGYKTNSCCNSPN]

- MIC [5]: 2.85 µM (≈ 7.8 µg/mL)
- MIC [6]: 0.71 µM (≈ 1.94 µg/mL)
- MIC [7]: 11.4 µM (≈ 31.2 µg/mL)
- MIC [8]: 5.7 µM (≈ 15.6 µg/mL)
SMILES: CC[C@H](C)[C@H](NC(C)=O)C(=O)N[C@@H](Cc1c[nH]c2ccccc12)C(=O)N[C@@H](CC(C)C)C(=O)N[C@H](C(=O)N[C@@H](C)C(=O)N[C@@H](CC(C)C)C(=O)N[C@@H](CCCCN)C(=O)N[C@@H](Cc1ccccc1)C(=O)N[C@@H](CC(C)C)C(=O)NCC(=O)N[C@@H](CCCCN)C(=O)N[C@@H](CC(N)=O)C(=O)N[C@@H](CC(C)C)C(=O)NCC(=O)N[C@@H](CCCCN)C(=O)N[C@@H](CC(C)C)C(=O)N[C@@H](C)C(=O)N[C@@H](CCCCN)C(=O)N[C@@H](CCC(N)=O)C(=O)N[C@@H](CCC(N)=O)C(=O)N[C@@H](CC(C)C)C(=O)N[C@@H](C)C(=O)N[C@@H](CCCCN)C(=O)N[C@@H](CC(C)C)C(N)=O)[C@@H](C)O [IWLTALKFLGKNLGKLAKQQLAKL]

- MIC [9]: ≥ 72.4 µM
- MIC [10]: 18.1 µM (≈ 31.3 µg/mL)
- MIC [11]: > 145 µM
- MIC [12]: > 145 µM
- MIC [14]: ≥ 72.4 µM
- MIC [15]: 18.1 µM (≈ 31.3 µg/mL)
SMILES: CC[C@H](C)[C@H](NC(=O)[C@H](C)NC(=O)[C@H](CC(=O)O)NC(=O)[C@H](CCCN=C(N)N)NC(=O)[C@@H](NC(=O)[C@@H](N)CCCN=C(N)N)[C@@H](C)CC)C(=O)N[C@@H](C)C(=O)N[C@@H](Cc1cnc[nH]1)C(=O)NCC(=O)N[C@@H](Cc1ccc(O)cc1)C(=O)N[C@H](C(=O)N[C@H](C(=O)N[C@@H](CC(=O)O)C(=O)N[C@@H](CCCCN)C(=O)N[C@H](C(=O)O)C(C)C)C(C)C)[C@@H](C)CC [RIRDAIAHGYIVDKV]
- MIC [13]: ≥ 145 µM

- MIC [16]: 7.07 µM and 21.2 µM
SMILES: NCCCC[C@H](NC(=O)[C@H](CCCCN)NC(=O)[C@H](CCCN=C(N)N)NC(=O)[C@H](CCCN=C(N)N)NC(=O)[C@H](CCCN=C(N)N)NC(=O)[C@H](CCCN=C(N)N)NC(=O)[C@H](CCC(N)=O)NC(=O)[C@H](CCCN=C(N)N)NC(=O)[C@H](CCCN=C(N)N)NC(=O)[C@H](CCCCN)NC(=O)[C@H](CCCCN)NC(=O)[C@@H](N)CCCN=C(N)N)C(=O)N[C@@H](CCCN=C(N)N)C(=O)N[C@@H](CCCN=C(N)N)C(=O)N[C@@H](CCC(N)=O)C(=O)N[C@@H](CCCN=C(N)N)C(=O)N[C@@H](CCCN=C(N)N)C(=O)N[C@@H](CCCN=C(N)N)C(=O)O [RKKRRQRRRRKKRRQRRR]

- MIC [17]: 1.56 µM (≈ 1.97 µg/mL)
- MIC [18]: 1.56 µM (≈ 1.97 µg/mL)
- MIC [19]: 3.12 µM (≈ 3.95 µg/mL)
SMILES: CC[C@H](C)[C@H](NC(=O)[C@H](CC(C)C)NC(=O)[C@@H]1CCCN1C(=O)[C@H](CC(C)C)NC(=O)[C@H](CC(C)C)NC(=O)[C@@H](N)CO)C(=O)N[C@@H](CCCN=C(N)N)C(=O)N[C@@H](CCCCN)C(=O)N[C@@H](CC(C)C)C(=O)N[C@H](C(=O)N[C@H](C(N)=O)[C@@H](C)O)[C@@H](C)CC [SLLPLIRKLIT]

Reference: DBAASP
